Data: patent US12187712B2, “Cardiac sarcomere inhibitors” (Cytokinetics, Inc., priority 2018, dated 2025)

The compounds below were run against T1, bovine cardiac myofibrils (Bos taurus, UniProt Q9BE39) (assay: Skinned myofibril ATPase assay (PK/LDH-coupled), CDMF75). Settings: inhibition of steady-state ATPase activity of bovine cardiac myofibrils at 75% Ca2+ activation (pCa75).
T1 construct: full-length cardiac myosin in the context of the native sarcomere, skinned myofibril assays were performed; from tissue; host or cells: bovine cardiac left ventricular tissue, detergent-skinned (Triton X-100) myofibrils
T1 sequence (Q9BE39 whole entry): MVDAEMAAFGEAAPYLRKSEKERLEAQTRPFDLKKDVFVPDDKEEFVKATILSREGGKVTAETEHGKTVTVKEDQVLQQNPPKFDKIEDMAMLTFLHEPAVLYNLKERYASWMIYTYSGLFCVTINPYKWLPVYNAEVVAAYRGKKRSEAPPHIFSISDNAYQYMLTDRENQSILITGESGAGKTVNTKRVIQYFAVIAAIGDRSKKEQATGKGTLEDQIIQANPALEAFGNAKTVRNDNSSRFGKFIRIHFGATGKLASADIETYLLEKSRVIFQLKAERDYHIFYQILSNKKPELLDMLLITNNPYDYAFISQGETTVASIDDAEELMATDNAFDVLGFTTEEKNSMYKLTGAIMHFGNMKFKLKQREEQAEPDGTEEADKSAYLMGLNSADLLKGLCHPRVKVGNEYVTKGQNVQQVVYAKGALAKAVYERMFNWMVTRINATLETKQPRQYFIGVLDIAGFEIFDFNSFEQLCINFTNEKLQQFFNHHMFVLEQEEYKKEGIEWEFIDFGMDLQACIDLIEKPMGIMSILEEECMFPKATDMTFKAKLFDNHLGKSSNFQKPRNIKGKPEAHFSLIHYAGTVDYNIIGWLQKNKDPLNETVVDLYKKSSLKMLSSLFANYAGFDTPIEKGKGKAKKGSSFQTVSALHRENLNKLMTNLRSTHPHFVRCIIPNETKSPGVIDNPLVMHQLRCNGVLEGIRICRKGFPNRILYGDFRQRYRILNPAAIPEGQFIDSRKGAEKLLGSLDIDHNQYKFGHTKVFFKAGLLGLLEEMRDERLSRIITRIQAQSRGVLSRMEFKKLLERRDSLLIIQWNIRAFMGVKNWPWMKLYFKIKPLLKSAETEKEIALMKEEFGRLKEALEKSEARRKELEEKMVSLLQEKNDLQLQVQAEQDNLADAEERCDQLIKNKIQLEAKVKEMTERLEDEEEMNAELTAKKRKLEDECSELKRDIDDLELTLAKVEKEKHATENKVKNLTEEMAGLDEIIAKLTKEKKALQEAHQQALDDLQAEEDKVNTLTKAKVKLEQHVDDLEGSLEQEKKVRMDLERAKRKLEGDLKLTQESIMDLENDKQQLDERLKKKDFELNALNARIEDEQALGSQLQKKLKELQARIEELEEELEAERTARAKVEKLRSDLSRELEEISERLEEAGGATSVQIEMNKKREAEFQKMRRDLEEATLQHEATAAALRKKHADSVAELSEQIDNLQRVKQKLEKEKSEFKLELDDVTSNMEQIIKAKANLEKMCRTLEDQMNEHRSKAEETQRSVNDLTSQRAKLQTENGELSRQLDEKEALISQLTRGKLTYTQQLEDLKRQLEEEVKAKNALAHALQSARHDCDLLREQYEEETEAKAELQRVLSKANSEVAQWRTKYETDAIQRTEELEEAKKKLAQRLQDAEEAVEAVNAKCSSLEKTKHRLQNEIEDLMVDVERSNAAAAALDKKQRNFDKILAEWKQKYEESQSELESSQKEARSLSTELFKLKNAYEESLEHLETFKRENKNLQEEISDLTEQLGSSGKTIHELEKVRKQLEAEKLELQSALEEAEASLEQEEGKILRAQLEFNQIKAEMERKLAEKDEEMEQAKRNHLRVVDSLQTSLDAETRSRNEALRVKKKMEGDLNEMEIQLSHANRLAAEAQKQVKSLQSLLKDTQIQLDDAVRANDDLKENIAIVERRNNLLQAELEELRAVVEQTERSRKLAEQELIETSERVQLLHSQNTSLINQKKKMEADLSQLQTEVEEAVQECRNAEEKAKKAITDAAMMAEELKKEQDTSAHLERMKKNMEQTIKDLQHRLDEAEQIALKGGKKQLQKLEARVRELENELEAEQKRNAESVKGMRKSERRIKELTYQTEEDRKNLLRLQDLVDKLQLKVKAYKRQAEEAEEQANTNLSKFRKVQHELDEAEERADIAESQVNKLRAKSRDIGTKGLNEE
T1 sequence (P85100 whole entry partner): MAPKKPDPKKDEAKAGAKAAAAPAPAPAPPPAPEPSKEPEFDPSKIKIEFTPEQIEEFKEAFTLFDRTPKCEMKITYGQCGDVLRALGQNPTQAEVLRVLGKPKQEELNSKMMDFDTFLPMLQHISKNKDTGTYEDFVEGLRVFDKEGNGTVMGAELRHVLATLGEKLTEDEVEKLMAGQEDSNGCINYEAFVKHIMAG
T1 sequence (Q3SZE5 whole entry partner): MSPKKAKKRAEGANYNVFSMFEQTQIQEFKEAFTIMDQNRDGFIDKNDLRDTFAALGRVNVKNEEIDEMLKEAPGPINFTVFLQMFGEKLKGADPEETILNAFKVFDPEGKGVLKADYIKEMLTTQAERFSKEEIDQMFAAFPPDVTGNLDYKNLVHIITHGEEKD
Type: biochemical
Procedure: To evaluate the effect of compounds on the ATPase activity of full-length cardiac myosin in the context of the native sarcomere, skinned myofibril assays were performed. Bovine cardiac myofibrils were obtained by homogenizing bovine cardiac left ventricular tissue in the presence of a detergent such as triton X-100. Such treatment removes membranes and a majority of the soluble cytoplasmic proteins but leaves intact the cardiac sarcomeric acto-myosin apparatus. Myofibril preparations retain the ability to hydrolyze ATP in an Ca^2+ regulated manner. ATPase activities of such myofibril preparations in the presence and absence of compounds were assayed at Ca^2+ concentrations activating to a defined fraction of the maximal rate (i.e., 25%, 75%). Small molecule agents were assessed for their ability to inhibit the steady-state ATPase activity of bovine cardiac myofibrils using pyruvate kinase and lactate dehydrogenase (PK/LDH)-coupled enzyme system. This assay regenerates myosin-produced ADP into ATP by oxidizing NADH, producing an absorbance change at 340 nm. Prior to testing small molecule agents, the bovine cardiac myofibrils were assessed for their calcium responsiveness and the calcium concentration that achieves either a 50% (pCa50) or 75% (pCa75) activation of the myofibril system was chosen as the final condition for assessing the inhibitory activity of the small molecule agents. All enzymatic activity was measured in a buffered solution containing 12 mM PIPES (piperazine-N,N′-bis(2-ethanesulfonic acid), 2 mM magnesium chloride at pH 6.8 (PM 12 buffer). Final assay conditions were 1 mg/mL of bovine cardiac myofibrils, 4 U/mL pyruvate kinase, 6 U/mL lactate dehydrogenase, 50 μM ATP, 0.1 mg/mL BSA (bovine serum albumin), 10 ppm antifoam, 1 mM DTT, 0.5 mM NADH, 1.5 mM PEP, 0.6 mM EGTA, and an amount of CaCl2 sufficient to achieve either 50% or 75% activation of the myofibril ATPase activity. Results for compounds tested are provided in Table A. Compounds tested were prepared in accordance with the synthetic procedures described herein.

CDMF75 IC15	IC50	Structure (SMILES)
1400 nM	8100 nM	Cc1nc(-c2ccc(CNc3cncc(Cl)n3)cc2)no1 [Compound 1, 6-chloro-N-(4-(5-methyl-1,2,4-oxadiazol-3-yl)benzyl)pyrazin-2-amine]
800 nM	4300 nM	Cc1nc(-c2ccc(CNc3cnccn3)cc2)no1 [Compound 2, N-(4-(5-methyl-1,2,4-oxadiazol-3-yl)benzyl)pyrazin-2-amine]
3600 nM	27700 nM	Cc1nc(-c2ccc(CNc3ccncn3)cc2)no1 [Compound 3, N-(4-(5-methyl-1,2,4-oxadiazol-3-yl)benzyl)pyrimidin-4-amine]
1900 nM	6600 nM	Cc1cc(NCc2ccc(-c3noc(C)n3)cc2)ncn1 [Compound 4, 6-methyl-N-(4-(5-methyl-1,2,4-oxadiazol-3-yl)benzyl)pyrimidin-4-amine]
	3700 nM	Cc1nc(-c2ccc(CNc3cc(C(F)(F)F)ncn3)cc2)no1 [Compound 5, N-(4-(5-methyl-1,2,4-oxadiazol-3-yl)benzyl)-6-(trifluoromethyl)pyrimidin-4-amine]
	27000 nM	Cc1nc(-c2ccc(CNc3cc(C4CC4)ncn3)cc2)no1 [Compound 6, 6-cyclopropyl-N-(4-(5-methyl-1,2,4-oxadiazol-3-yl)benzyl)pyrimidin-4-amine]
	1800 nM	Cc1nc(-c2ccc(CNc3cc(C#N)ncn3)cc2)no1 [Compound 7, 6-((4-(5-methyl-1,2,4-oxadiazol-3-yl)benzyl)amino)pyrimidine-4-carbonitrile]
3100 nM	16600 nM	CCc1cc(NCc2ccc(-c3noc(C)n3)cc2)ncn1 [Compound 8, 6-ethyl-N-(4-(5-methyl-1,2,4-oxadiazol-3-yl)benzyl)pyrimidin-4-amine]
300 nM	1200 nM	Cc1nc(-c2ccc(CNc3cc(Cl)ncn3)cc2)no1 [Compound 9, 6-chloro-N-(4-(5-methyl-1,2,4-oxadiazol-3-yl)benzyl)pyrimidin-4-amine]
1300 nM	7600 nM	Cc1nc(-c2ccc(CNc3cnc(C#N)cn3)cc2)no1 [Compound 10, 5-((4-(5-methyl-1,2,4-oxadiazol-3-yl)benzyl)amino)pyrazine-2-carbonitrile]
200 nM	700 nM	CCc1nc(-c2ccc(CNc3cc(C#N)ncn3)cc2)no1 [Compound 11, 6-((4-(5-ethyl-1,2,4-oxadiazol-3-yl)benzyl)amino)pyrimidine-4-carbonitrile]
2500 nM	9800 nM	Cc1nc(-c2ccc(CNc3ccnc(Cl)n3)cc2)no1 [Compound 12, 2-chloro-N-(4-(5-methyl-1,2,4-oxadiazol-3-yl)benzyl)pyrimidin-4-amine]
300 nM	1500 nM	Cc1nc(-c2ccc(CNc3cnc(Cl)cn3)cc2)no1 [Compound 13, 5-chloro-N-(4-(5-methyl-1,2,4-oxadiazol-3-yl)benzyl)pyrazin-2-amine]
4600 nM	20900 nM	Cc1nc(-c2ccc(CNc3ccc(C#N)cn3)cc2)no1 [Compound 14, 6-((4-(5-methyl-1,2,4-oxadiazol-3-yl)benzyl)amino) nicotinonitrile]
1000 nM	5500 nM	Cc1nc(-c2ccc(CNc3cc(C#N)ccn3)cc2)no1 [Compound 15, 2-((4-(5-methyl-1,2,4-oxadiazol-3-yl)benzyl)amino) isonicotinonitrile]
3100 nM	17300 nM	Cc1nc(-c2ccc(CNc3cnc(C(F)(F)F)cn3)cc2)no1 [Compound 16, N-(4-(5-methyl-1,2,4-oxadiazol-3-yl)benzyl)-5-(trifluoromethyl)pyrazin-2-amine]

CDMF75 IC15	IC50	Structure (SMILES)
2900 nM	18900 nM	Cc1nc(-c2ccc(CNc3cc(C#N)ncn3)nc2)no1 [Compound 17, 6-(((5-(5-methyl-1,2,4-oxadiazol-3-yl)pyridin-2-yl)methyl)amino)pyrimidine-4-carbonitrile]
400 nM	2100 nM	Cc1noc(-c2ccc(CNc3cc(Cl)ncn3)cc2)n1 [Compound 18, 6-chloro-N-(4-(3-methyl-1,2,4-oxadiazol-5-yl)benzyl)pyrimidin-4-amine]
1500 nM	5200 nM	Cc1nc(-c2ccc(CNc3ccc(Cl)cn3)cc2)no1 [Compound 20, 5-chloro-N-(4-(5-methyl-1,2,4-oxadiazol-3-yl)benzyl)pyridin-2-amine]
2200 nM	12800 nM	Cc1nc(-c2ccc(C(C)Nc3cc(Cl)ncn3)cc2)no1 (centres unmarked) [Compound 21, 6-chloro-N-(1-(4-(5-methyl-1,2,4-oxadiazol-3-yl)phenyl)ethyl)pyrimidin-4-amine]
400 nM	1800 nM	c1cnc(NCc2ccc(-c3noc(C4CC4)n3)cc2)cn1 [Compound 22, N-(4-(5-cyclopropyl-1,2,4-oxadiazol-3-yl)benzyl)pyrazin-2-amine]
300 nM	1400 nM	c1cnc(NCc2ccc(-c3noc(C4CCC4)n3)cc2)cn1 [Compound 23, N-(4-(5-cyclobutyl-1,2,4-oxadiazol-3-yl)benzyl)pyrazin-2-amine]
800 nM	3100 nM	FC(F)c1nc(-c2ccc(CNc3cnccn3)cc2)no1 [Compound 24, N-(4-(5-(difluoromethyl)-1,2,4-oxadiazol-3-yl)benzyl)pyrazin-2-amine]
1100 nM	4500 nM	FCc1nc(-c2ccc(CNc3cnccn3)cc2)no1 [Compound 25, N-(4-(5-(fluoromethyl)-1,2,4-oxadiazol-3-yl)benzyl)pyrazin-2-amine]
1100 nM	5600 nM	Cc1nc(-c2ccc(C(C)Nc3cnccn3)cc2)no1 (centres unmarked) [Compound 26, N-(1-(4-(5-methyl-1,2,4-oxadiazol-3-yl)phenyl)ethyl)pyrazin-2-amine]
1200 nM	8900 nM	Cc1cnc(-c2ccc(CNc3cc(Cl)ncn3)cc2)o1 [Compound 27, 6-chloro-N-(4-(5-methyloxazol-2-yl)benzyl)pyrimidin-4-amine]
8100 nM	38900 nM	Cc1cnn(-c2ccc(CNc3cnccn3)cc2)c1 [Compound 29, N-(4-(4-methyl-1H-pyrazol-1-yl)benzyl)pyrazin-2-amine]
500 nM	2600 nM	COC(=O)c1nc(-c2ccc(CNc3cnccn3)cc2)no1 [Compound 30, methyl 3-(4-((pyrazin-2-ylamino)methyl)phenyl)-1,2,4-oxadiazole-5-carboxylate]
400 nM	1510 nM	C[C@@H](Nc1cnccn1)c1ccc(-c2noc(C3CC3)n2)cc1 [Compound 31, (R)-N-(1-(4-(5-cyclopropyl-1,2,4-oxadiazol-3-yl)phenyl)ethyl)pyrazin-2-amine]
300 nM	1400 nM	C[C@@H](Nc1cnccn1)c1ccc(-c2noc(C3CCC3)n2)cc1 [Compound 32, (R)-N-(1-(4-(5-cyclobutyl-1,2,4-oxadiazol-3-yl)phenyl)ethyl)pyrazin-2-amine]
300 nM	1500 nM	C[C@@H](Nc1cnccn1)c1ccc(-c2noc(C(F)F)n2)cc1 [Compound 33, (R)-N-(1-(4-(5-(difluoromethyl)-1,2,4-oxadiazol-3-yl)phenyl)ethyl)pyrazin-2-amine]
